Measurements taken from ChEMBL document CHEMBL1201862, “PubChem BioAssay data set” (2004).
Active and inactive are the calls of the source.

Experiments:
[1] = target: T1, DNA repair and recombination protein RAD54-like (Homo sapiens, UniProt Q92698); assay: RAD54 Holliday junction migration blockers – biochemical, fluorescence, cherry-picked samples, dose series, confirmation (AID 651657); format: functional
T1 sequence (Q92698 whole entry): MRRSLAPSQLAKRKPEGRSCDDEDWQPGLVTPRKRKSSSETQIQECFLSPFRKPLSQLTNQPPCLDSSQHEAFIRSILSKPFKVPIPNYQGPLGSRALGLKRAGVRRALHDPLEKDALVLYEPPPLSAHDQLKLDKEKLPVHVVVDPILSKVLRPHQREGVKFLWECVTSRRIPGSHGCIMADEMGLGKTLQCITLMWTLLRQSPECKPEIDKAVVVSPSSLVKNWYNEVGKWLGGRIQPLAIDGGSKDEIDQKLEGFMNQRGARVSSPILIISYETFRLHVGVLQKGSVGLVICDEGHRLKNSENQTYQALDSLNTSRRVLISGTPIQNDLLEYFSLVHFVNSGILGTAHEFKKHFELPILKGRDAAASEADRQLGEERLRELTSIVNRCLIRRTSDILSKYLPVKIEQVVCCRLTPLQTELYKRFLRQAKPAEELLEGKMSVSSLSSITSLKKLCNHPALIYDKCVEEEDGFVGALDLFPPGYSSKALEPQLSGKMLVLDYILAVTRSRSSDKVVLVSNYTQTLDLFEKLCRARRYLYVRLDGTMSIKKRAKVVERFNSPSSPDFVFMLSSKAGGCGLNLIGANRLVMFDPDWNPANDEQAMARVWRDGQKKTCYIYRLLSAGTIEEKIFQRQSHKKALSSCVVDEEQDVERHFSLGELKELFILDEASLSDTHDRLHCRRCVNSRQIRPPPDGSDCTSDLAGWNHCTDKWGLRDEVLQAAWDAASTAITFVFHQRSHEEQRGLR

[2] = target: Nonstructural protein 1 (Influenza A virus, UniProt Q194T2); format: functional, Influenza A virus (A/California/07/2009(H1N1))
[3] = target: T2, Replicative DNA helicase DnaB (Mycobacterium tuberculosis, UniProt P9WMR3); assay: DnaB intein splicing inhibitors, dose response, biochemical, cell-free fluorescence (AID 449749); format: functional
T2 sequence (P9WMR3 whole entry): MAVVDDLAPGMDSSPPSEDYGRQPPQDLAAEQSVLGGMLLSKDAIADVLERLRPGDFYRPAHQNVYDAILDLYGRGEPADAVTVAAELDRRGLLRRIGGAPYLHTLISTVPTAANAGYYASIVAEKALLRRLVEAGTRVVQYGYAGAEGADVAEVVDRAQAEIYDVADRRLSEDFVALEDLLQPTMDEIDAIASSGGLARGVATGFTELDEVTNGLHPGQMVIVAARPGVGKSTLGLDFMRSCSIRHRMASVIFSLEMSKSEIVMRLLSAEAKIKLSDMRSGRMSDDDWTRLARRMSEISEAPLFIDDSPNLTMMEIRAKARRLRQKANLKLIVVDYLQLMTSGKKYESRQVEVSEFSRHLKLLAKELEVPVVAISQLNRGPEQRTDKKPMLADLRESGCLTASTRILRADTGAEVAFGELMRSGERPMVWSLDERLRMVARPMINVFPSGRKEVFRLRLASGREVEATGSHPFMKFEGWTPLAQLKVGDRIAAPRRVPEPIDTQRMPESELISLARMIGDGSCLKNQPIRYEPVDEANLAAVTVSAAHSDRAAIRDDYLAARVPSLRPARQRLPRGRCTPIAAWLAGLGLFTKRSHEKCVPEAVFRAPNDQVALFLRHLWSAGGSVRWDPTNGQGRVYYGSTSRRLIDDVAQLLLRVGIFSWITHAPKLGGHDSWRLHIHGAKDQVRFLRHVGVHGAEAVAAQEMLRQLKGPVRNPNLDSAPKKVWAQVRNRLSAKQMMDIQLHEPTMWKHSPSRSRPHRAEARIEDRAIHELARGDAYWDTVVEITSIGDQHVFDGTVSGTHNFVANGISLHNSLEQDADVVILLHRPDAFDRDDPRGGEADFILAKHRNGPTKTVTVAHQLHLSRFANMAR

[4] = target: T3, High affinity choline transporter 1 (Homo sapiens, UniProt Q9GZV3); assay: human choline transporter blockers, potency – cell-based, 5-point CRC, membrane potential dye, dose response (AID 504840); format: functional
T3 sequence (Q9GZV3 whole entry): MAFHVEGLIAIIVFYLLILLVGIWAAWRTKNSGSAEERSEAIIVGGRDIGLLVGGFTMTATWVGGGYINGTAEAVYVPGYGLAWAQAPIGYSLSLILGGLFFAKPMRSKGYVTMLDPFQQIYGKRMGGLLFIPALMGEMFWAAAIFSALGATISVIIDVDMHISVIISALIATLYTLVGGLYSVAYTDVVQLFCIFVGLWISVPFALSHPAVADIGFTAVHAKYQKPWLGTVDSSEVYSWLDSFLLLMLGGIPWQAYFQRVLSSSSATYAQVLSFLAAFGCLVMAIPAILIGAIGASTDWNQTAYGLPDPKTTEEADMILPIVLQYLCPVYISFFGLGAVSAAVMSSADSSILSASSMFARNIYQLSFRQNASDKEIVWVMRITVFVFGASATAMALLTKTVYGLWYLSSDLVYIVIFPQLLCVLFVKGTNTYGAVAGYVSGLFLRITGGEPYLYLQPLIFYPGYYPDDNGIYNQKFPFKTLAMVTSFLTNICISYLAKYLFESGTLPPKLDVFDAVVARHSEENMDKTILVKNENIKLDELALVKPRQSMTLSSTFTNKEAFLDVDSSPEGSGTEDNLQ

[5] = target: T4, Protein RecA (Mycobacterium tuberculosis, UniProt P9WHJ3); assay: Fluorescence Cell-Free Homogeneous Dose Retest to Identify Inhibitors of RecA-Intein Splicing Activity. [Related pubchem assays (depositor defined):AID2097, AID2223, AID489010, AID492950]; format: functional
T4 sequence (P9WHJ3 whole entry): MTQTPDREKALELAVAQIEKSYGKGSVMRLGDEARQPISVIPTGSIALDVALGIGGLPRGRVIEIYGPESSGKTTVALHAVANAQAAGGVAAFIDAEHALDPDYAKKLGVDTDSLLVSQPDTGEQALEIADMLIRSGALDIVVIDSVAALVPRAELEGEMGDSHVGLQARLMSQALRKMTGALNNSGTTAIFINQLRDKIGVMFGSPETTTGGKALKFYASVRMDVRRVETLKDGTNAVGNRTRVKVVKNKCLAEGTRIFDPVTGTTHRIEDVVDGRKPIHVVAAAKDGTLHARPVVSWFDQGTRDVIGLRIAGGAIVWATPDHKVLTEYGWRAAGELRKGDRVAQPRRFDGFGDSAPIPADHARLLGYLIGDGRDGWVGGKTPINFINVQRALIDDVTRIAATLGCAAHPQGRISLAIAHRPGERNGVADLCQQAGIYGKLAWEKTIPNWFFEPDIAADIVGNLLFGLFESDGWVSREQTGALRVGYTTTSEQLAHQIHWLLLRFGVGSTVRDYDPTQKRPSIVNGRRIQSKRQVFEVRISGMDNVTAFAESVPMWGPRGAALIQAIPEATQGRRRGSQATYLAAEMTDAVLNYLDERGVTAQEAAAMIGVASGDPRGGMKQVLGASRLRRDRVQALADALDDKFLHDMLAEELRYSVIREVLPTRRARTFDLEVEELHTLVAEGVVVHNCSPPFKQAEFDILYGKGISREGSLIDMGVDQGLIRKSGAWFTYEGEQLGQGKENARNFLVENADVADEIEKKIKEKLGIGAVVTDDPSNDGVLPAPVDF

[6] = target: 26S proteasome non-ATPase regulatory subunit 14 (Homo sapiens, UniProt O00487); assay: inhibition of proteasome subunit RPN11 – biochemical, fluorescence polarization, uHTS hits, confirmation (AID 602368); format: functional
[7] = target: 72 kDa type IV collagenase (Homo sapiens, UniProt P08253); assay: Dose Response validation of uHTS RPN11 inhibitor hits using a MMP-2 Fluorescence assay.; format: functional
[8] = target: Prothrombin (Bos taurus, UniProt P00735); assay: thrombin protease inhibitors – biochemical, fluorescence polarization, uHTS hits, dose response (AID 602369); format: functional
[9] = target: T5, Heat shock factor protein 1 (Mus musculus, UniProt P38532); assay: decrease of HSF1-responsive luciferase luminescence – cell-based, NIH3T3, dose retest, confirmation (AID 2382); format: functional;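 note: NIH3T3 fibroblasts with HSF1-driven luciferase reporter stressed by proteasome inhibitor MG132; luminescence from HSF1-driven luciferase expression after 8 hours of MG132 stress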
T5 sequence (P38532 whole entry): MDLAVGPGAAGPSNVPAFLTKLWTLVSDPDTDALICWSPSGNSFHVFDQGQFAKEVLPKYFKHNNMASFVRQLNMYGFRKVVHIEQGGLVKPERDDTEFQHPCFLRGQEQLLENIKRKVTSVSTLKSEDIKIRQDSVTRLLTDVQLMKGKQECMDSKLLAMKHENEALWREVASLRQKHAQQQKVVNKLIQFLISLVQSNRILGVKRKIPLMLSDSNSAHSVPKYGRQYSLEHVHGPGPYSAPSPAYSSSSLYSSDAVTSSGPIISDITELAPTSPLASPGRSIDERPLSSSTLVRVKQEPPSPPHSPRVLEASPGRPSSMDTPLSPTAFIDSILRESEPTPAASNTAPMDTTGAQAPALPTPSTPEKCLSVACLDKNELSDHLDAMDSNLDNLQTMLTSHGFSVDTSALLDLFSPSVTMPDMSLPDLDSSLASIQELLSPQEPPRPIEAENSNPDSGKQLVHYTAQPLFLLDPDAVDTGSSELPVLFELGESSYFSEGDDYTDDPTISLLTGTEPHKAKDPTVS

[10] = target: T6, Corticotropin-releasing factor receptor 2/Corticotropin-releasing factor-binding protein (Homo sapiens, UniProt P24387+Q13324); assay: Dose Response confirmation of uHTS hits for small molecule antagonists of the CRF-binding protein and CRF-R2 receptor complex.; format: functional; details: read-out: IC50_Mean
T6 sequence (Q13324 whole entry): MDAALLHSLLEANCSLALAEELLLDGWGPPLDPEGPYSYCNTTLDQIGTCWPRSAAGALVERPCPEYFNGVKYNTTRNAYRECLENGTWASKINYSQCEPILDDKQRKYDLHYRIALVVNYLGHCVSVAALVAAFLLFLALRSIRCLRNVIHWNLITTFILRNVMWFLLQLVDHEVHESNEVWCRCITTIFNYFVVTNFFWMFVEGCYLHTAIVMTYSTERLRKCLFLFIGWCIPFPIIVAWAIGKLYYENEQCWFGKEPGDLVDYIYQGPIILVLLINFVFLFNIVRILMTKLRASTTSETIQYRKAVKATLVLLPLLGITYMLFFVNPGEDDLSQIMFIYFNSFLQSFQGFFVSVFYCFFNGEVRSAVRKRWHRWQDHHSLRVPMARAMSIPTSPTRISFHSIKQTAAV
T6 sequence (P24387 whole entry): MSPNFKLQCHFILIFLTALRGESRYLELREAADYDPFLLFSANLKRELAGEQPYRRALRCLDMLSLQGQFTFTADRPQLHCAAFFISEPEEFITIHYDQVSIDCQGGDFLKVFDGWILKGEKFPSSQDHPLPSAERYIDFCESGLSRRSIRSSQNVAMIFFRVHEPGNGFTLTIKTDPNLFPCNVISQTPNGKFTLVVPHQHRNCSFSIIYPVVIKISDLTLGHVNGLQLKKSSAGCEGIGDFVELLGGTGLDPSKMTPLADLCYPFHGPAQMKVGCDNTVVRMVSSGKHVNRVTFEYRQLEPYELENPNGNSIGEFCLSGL

[11] = target: T6, Corticotropin-releasing factor receptor 2/Corticotropin-releasing factor-binding protein; assay: activators of CRF receptor 2 with binding protein – uHTS hits, confirmation (AID 602473); format: functional; details: read-out: EC50_Mean
[12] = blockers of CRF-binding protein–CRF-R2 complex – cell-based, uHTS hits, 384-well, dose response (AID 651639); format: functional, Homo sapiens; details: read-out: IC50_Mean
[13] = nonselective StAR promoter luciferase inhibitors – cell-based, luminescence, luciferase reporter, counter-screen for LRH-1 inverse agonist project, dose response (AID 651969); format: functional
[14] = target: T7, Carboxy-terminal domain RNA polymerase II polypeptide A small phosphatase 1 (Homo sapiens, UniProt Q9GZU7); assay: CTDSP1 inhibitors, concentration-response, biochemical, absorbance readout, ultra-high-throughput screen actives (AID 540297); format: functional
T7 sequence (Q9GZU7 whole entry): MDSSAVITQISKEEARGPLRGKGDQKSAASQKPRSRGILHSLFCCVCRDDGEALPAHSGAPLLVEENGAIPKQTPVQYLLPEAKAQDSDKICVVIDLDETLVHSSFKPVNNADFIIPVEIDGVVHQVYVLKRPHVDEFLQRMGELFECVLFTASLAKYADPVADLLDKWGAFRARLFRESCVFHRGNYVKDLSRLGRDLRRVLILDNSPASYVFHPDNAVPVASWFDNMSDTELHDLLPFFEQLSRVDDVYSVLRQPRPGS

Chain of 72 kDa type IV collagenase (P08253 whole entry): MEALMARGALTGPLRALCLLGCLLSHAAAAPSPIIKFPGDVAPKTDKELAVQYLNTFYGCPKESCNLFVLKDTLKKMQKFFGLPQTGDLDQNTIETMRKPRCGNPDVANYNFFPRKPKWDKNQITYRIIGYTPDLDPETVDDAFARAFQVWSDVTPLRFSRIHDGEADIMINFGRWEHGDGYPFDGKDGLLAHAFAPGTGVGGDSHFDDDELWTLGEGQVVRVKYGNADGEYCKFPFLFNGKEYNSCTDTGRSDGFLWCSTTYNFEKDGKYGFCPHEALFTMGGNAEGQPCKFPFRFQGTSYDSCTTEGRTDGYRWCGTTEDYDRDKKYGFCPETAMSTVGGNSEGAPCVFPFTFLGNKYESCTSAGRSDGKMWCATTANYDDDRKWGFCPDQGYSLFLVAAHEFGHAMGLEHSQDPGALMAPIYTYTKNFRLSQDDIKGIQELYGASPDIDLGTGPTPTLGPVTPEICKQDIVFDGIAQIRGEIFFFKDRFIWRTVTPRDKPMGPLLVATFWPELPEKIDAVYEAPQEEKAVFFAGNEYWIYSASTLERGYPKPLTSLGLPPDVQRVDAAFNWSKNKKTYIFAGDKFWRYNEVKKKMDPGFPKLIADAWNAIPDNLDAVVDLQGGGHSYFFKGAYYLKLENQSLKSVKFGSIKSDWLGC
Chain of 26S proteasome non-ATPase regulatory subunit 14 (O00487 whole entry): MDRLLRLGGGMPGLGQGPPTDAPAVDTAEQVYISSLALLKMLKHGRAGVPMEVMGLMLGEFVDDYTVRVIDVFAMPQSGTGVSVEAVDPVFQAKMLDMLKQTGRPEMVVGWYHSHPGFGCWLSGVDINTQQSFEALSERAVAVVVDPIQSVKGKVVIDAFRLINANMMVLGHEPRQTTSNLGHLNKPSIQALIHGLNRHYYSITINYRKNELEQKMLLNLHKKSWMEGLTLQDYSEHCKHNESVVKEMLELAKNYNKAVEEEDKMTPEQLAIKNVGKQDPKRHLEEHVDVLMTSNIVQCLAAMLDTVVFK
Chain of Nonstructural protein 1 (Q194T2 whole entry): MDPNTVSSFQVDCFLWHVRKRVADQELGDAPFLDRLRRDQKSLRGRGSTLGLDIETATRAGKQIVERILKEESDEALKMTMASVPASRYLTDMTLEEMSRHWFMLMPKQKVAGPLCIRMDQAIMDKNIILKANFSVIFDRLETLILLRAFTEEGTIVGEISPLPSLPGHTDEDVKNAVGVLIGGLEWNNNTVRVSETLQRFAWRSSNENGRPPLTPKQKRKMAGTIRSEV

## CCN1CCN(C(S)=Nc2ccc3nc(N4CCN(CC)CC4)cc(C)c3c2)CC1
[1]
  AC50: 95 µM (active)

## COc1cc(/C=C2/C(=O)N(c3cccc(Br)c3)N=C2C)cc(OC)c1O
[2]
  IC50: 14.5 µM (active)
[3]
  AC50: 3.93 µM (active)
[4]
  IC50: 13.8 µM (active)
[5]
  EC50: 1.6 µM (active)
[6]
  IC50: 23.1 µM (active)
[7]
  IC50: > 100 µM (inactive)
[8]
  IC50: 39 µM (active)

## COc1ccc(CNC(=O)c2nnn(CC(=O)Nc3cc(C)cc(C)c3)c2N)cc1
[9]
  EC50: > 195 µM (not active)
[6]
  IC50: 18.9 µM (active)
[7]
  IC50: > 100 µM (inactive)
[8]
  IC50: 63 µM (active)

## Cc1cc(C)cc(Nc2c(F)c(F)c(F)c(F)c2C(=O)O)c1
[10]
  IC50: 31.2 µM (active)
[11]
  EC50: > 53 µM (inactive)
[12]
  IC50: 3.74 µM (active)

## COc1ccc(NC(=O)CSc2sc3c(O)cc(O)nc3c2C#N)c(OC)c1
[13]
  IC50: 35.9 µM (inactive)

## Cc1ccc(S(=O)(=O)N2c3ccccc3OCC2c2ccccc2)cc1 (stereo not drawn)
[10]
  IC50: < 0.368 µM (active)
[11]
  EC50: > 53 µM (inactive)
[12]
  IC50: > 20 µM (inactive)

## CSc1ccc(NC(=O)CSc2nc3[nH]c(=O)cc(O)c3s2)cc1
[14]
  IC50: 4.06 µM (active)
[6]
  IC50: 68 µM (active)
[7]
  IC50: 40.4 µM (active)
[8]
  IC50: 88.3 µM (active)
